Measurements reported in patent publication US11702629B2, “Acceleration of stem cell differentiation” (Regents of the University of Minnesota, priority 2017, dated 2023).
“Also recorded” adds a separate entry of the source.

Experiments:
[1] = system: human pluripotent stem cells; assay: Accelerated production of neuromesoderm progenitors directly from hPSCs, 24 hours (SOX2/T immunophenotype); assay type: cell-based
Procedure: (§1) Differentiation medium consisting of Essential 6 supplemented with LDN-193189 HCl (500 nM, Selleckchem cat #S7507, Houston, Tex. USA), BGJ398 (100 nM Selleckchem cat #S2183 Houston, and TX USA), and CHIR 99021 (3 uM, Tocris cat #4423, Bristol UK) was combined and distributed 2 mL per vitronectin-coated well of a 6-well plate. hPSCs were dissociated into small clumps (25-50 cells per clump) as indicated above. 0.2 to 0.4 mL cultures were seeded onto rhVTN-coated wells containing differentiation medium.
The previous scenario utilized a neuroectoderm intermediate for the generation of neuromesoderm. Because it has been shown that neuromesoderm can be derived directly from hPSCs, high levels of WNT signaling were incorporated into the day-1 neuroectoderm conditions to investigate whether this could induce neuromesoderm directly.

day-1 neuroectoderm = assay: Caudalization of day-1 neuroectoderm into neuromesoderm; assay type: cell-based, human; details: by day 2
Procedure: Controversy currently exists surrounding the origin of the most caudal segments of the central nervous system that include the spinal cord. In vitro conditions for generating spinal cord tissue have traditionally relied upon the formation of anterior neural plate expressing SOX1+/FOXG1+/OTX2+/PAX5−/HOXB4− that is caudalized with factors such as FGF, WNT, and retinoic acid to create SOX1+/FOXG1−/OTX2−/PAX5−/HOXB4+ positive cervical spinal cord tissue. […] An additional 24 hours of WNT/FGF signaling converted this population into SOX1−/SOX2+/T+/TBX6−/HOXB4+ cervical-level neuromesoderm (FIG. 13).

[2] = system: human pluripotent stem cells; assay: Accelerated neural induction of hPSCs/hiPSCs into neuroepithelium, 24 hours (NANOG/SOX2/SOX1/PAX6 immunostaining); assay type: cell-based; details: for Effect on NE formation of inhibitors of FGF signaling cascade components: standard neuralizing conditions
Procedure: Prior to passaging, a recombinant human vitronectin stock solution (500 ug/mL, Peprotech AF-140-09, Rocky Hill, N.J., USA) was diluted 1:100 in DPBS+/+ (ThermoFisher Scientific cat #14040-133, Waltham, Mass., USA) and used to coat 9.6 cm^2 tissue-culture treated wells (Fischer Scientific, Hampton, N.H.) for one hour at room temperature. hPSCs were washed once with 1 mL hypertonic citrate buffer (11) or equivalent and then incubated with 1 mL hypertonic citrate buffer (11) at 37° C. for 6 minutes until colony detachment occurred. The colonies were collected and processed into 25-50 cell fragments by trituration and the dissociation quenched with 5 mL Essential 6 Medium (ThermoFisher Scientific A1516401, Waltham, Mass., USA). Suspensions were collected into 15 mL conical tubes and centrifuged for 1 minute at 200×G. Supernatants were aspirated and pellets resuspended into 1.2 mL Essential 6 Medium (ThermoFisher Scientific A2858501, Waltham, Mass., USA) assuming a 1:6 split ratio. 0.2 mL cultures were seeded onto rhVTN-coated wells containing Essential 8 Medium. Cultures were maintained in Essential 8 Medium with daily media changes and passaged every 3 days.
as §1, with “USA) and” for “USA),”, “Tex. USA)” for “and TX USA), and CHIR 99021 (3 uM, Tocris cat #4423, Bristol UK)”
Conditions were assayed in which the ERK pathway was inhibited at both receptor and downstream intracellular effector levels. The VEGFR2/FGFR2 inhibitor SU5402 was compounded with previously known neurulation conditions containing the ALK2/3 receptor antagonist LDN 193189 and the ALK 4/5/7 receptor antagonist A8-30-1 to observe their combined effect on undifferentiated pluripotent stem cells.
24-hour differentiating cultures were analyzed prior to cell death for various transcription factors associated with pluripotency and NE formation. […] SOX2, common to both hPSCs and NE, was maintained.

day-2 neuromesoderm = assay: Conversion of day-2 neuromesoderm into spinal neuroepithelium; assay type: cell-based, human; details: day 3
Procedure: Day-one Neuromesoderm progenitors were exposed to differentiation medium consisting of Essential 6 supplemented with CHIR 99021 (3 uM, Tocris cat #4423, Bristol UK) and FGF-Basic TS™ (20 ng/mL, Humanzyme cat #HZ-1286, Chicago, Ill. USA) for 24 hours. This day-two neuromesoderm was further exposed to differentiation medium consisting of Essential 6 supplemented with BGJ398 (100 nM Selleckchem cat #52183 Houston, Tex. USA) to create a day-three population of PAX3/SOX1/HOXB4-positive neuroepithelial cells.
It has been shown that retinoic acid signaling is needed to convert neuromesoderm into spinal cord neuroepithelium. […] It has been shown that retinoids exert multiple simultaneous functions in the developing spinal cord, inhibiting FGF signaling, while activating both WNT and SHH signaling. […] This spinal neuroepithelium was further characterized with respect to additional markers and discovered that it was partially PAX3-positive, an early spinal neural plate marker. The day-3 conditions were optimized to maximize PAX3 and it was discovered that moderate WNT signaling was needed in addition to FGF inhibition to derive a pure population of cervical neural plate epithelium homogeneously expression PAX3 (FIG. 18). To investigate the dorso-ventral patterning competency of these retinoid-independent spinal neuroepithelial cells, the day-3 cultures were exposed to SHH signaling. […]

[3] = 24-hour cultures, SU5402 with LDN 193189 and A8-30-1

`Cc1c[nH]c(-c2cnc(NCCNc3ccc(C#N)cn3)nc2-c2ccc(Cl)cc2Cl)n1` [CHIR99021] was tested, and the “HOXB4 expression of day-2 cultures” value ([1]; additional 24 hours incubation after day-1 neuromesoderm induction) was “upregulated the HOXB4 transcription factor” and the “Population induced from day-1 neuroectoderm by high WNT signaling” value (day-1 neuroectoderm) was “sufficient to induce a SOX1−/SOX2+/T+/TBX6−/HOXB4− population by day 2”.

With `Cc1c[nH]c(C=C2C(=O)Nc3ccccc32)c1CCC(=O)O` [SU5402, 3-[4-Methyl-2-(2-oxo-1,2-dihydro-indol-3-ylidenemethyl)-1H-pyrrol-3-yl]-propionic acid] the “SOX1-positivity (cells)” value ([2]; 24-hour cultures, SU5402 compounded with LDN 193189 and A8-30-1) was “greater than 90%”, the “NANOG positivity compared to undifferentiated control cultures” value [2, 3] was “reduced NANOG positivity” and the SOX2 expression [2, 3] was “maintained”. The “Outcome of continued culture” value ([2]; additional 48 hours, SU5402 with LDN 193189 and A8-30-1, data not shown) was “resulted in cell death”.

With `COc1nccc(-c2c(-c3ccc(F)cc3)ncn2C2CCC(O)CC2)n1` (stereo not drawn) [SB239063] the “Effect on NE formation of inhibitors of FGF signaling cascade components” value [2] was “had no effect”.

`O=C(NOC[C@H](O)CO)c1ccc(F)c(F)c1Nc1ccc(I)cc1F` [PD0325901, N-[(2R)-2,3-Dihydroxypropoxy]-3,4-difluoro-2-[(2-fluoro-4-iodophenyl)amino]-benzamide] was tested, and the “Effect on NE formation of inhibitors of FGF signaling cascade components” value [2] was “performed similarly to BGJ398; also recorded: substitutes for SU5402”, the “Replacement of BGJ398 in neural induction” value ([2]; with LDN 193189) was “fully replaces use of BGJ398” and the “Replacement of BGJ398 in neuromesoderm formation” value ([1]; with LDN193189 and CHIR99021) was “fully replaces use of BGJ398”.

With `CCN1CCN(c2ccc(Nc3cc(N(C)C(=O)Nc4c(Cl)c(OC)cc(OC)c4Cl)ncn3)cc2)CC1` [BGJ398, 3-(2,6-dichloro-3,5-dimethoxyphenyl)-1-(6-(4-(4-ethylpiperazin-1-yl)-phenylamino)pyrimidin-4-yl)-1-methylurea] the “Induction of SOX1-immunoreactivity when substituted for SU5402 in the inhibitor cocktail” value ([2]; 24 hours, panel of hPSC lines) was “matches or exceeds marker expression levels seen when using SU5402” and the “Population created from day-2 neuromesoderm” value (day-2 neuromesoderm) was “created a pure population of spinal neuroepithelium lacking evidence of neuromesoderm or somite tissues”.
